Experimental findings from the NIST ThermoML archive (doi:10.1021/je050440b) are described below.

A short description of this series: activity coefficient (dimensionless); of the first substance listed, at infinite dilution; xn = mol fraction of the nth substance listed. The note with it: Liquid, Chromatography, x1 = 0.

± gives the expanded uncertainty stated by the source.

On to `CCCCCO` [pentan-1-ol] + CCCC[N+](C)(C)C.O=S(=O)([N-]S(=O)(=O)C(F)(F)F)C(F)(F)F, for which the activity coefficient reads like this: (322.85 K) 3.85 ± 0.26; (333.15 K) 3.39 ± 0.23; (343.65 K) 3.01 ± 0.2; (354.05 K) 2.72 ± 0.19; (364.45 K) 2.45 ± 0.17.
Turning to `C=CCCCCCCCCC` [1-undecene] + CCCC[N+](C)(C)C.O=S(=O)([N-]S(=O)(=O)C(F)(F)F)C(F)(F)F, the activity coefficient (322.55 K) is 62.7 ± 4.3; the activity coefficient (333.25 K) was found to be 56.1 ± 3.8; the activity coefficient (343.65 K) is 50.7 ± 3.5; the activity coefficient (354.05 K) came out at 45.8 ± 3.1; the activity coefficient (364.55 K) turned out to be 42.6 ± 2.9; the activity coefficient (374.95 K) amounted to 37.6 ± 2.6.
For the compound `CCC=O` [propanal] + CCCC[N+](C)(C)C.O=S(=O)([N-]S(=O)(=O)C(F)(F)F)C(F)(F)F, the activity coefficient was found to be 0.58 ± 0.04 (301.65 K); 0.57 ± 0.04 (312.25 K); 0.54 ± 0.04 (322.75 K); 0.53 ± 0.04 (333.25 K); 0.52 ± 0.04 (343.55 K).
For the compound `CCCO` [propan-1-ol] + CCCC[N+](C)(C)C.O=S(=O)([N-]S(=O)(=O)C(F)(F)F)C(F)(F)F, the activity coefficient (301.75 K) came out at 2.76 ± 0.19, the activity coefficient (312.15 K) came to 2.43 ± 0.17, the activity coefficient (322.85 K) worked out at 2.14 ± 0.15 and the activity coefficient (333.35 K) stood at 1.9 ± 0.13.
Consider `CCCCCCCC=O` [octanal] + CCCC[N+](C)(C)C.O=S(=O)([N-]S(=O)(=O)C(F)(F)F)C(F)(F)F, for which the activity coefficient (364.64 K) was 3.53 ± 0.24, the activity coefficient (374.95 K) is 3.48 ± 0.24, the activity coefficient (385.45 K) is 3.44 ± 0.23 and the activity coefficient (395.95 K) came to 3.37 ± 0.23.
For `CCCCCCC=O` [heptanal] + CCCC[N+](C)(C)C.O=S(=O)([N-]S(=O)(=O)C(F)(F)F)C(F)(F)F, the activity coefficient reads like this: (354.15 K) 1.84 ± 0.12; (364.65 K) 1.73 ± 0.12; (374.95 K) 1.6 ± 0.11; (385.45 K) 1.48 ± 0.1; (395.95 K) 1.36 ± 0.09.
For the compound `CCCCCCC(=O)OC` [methyl heptanoate] + CCCC[N+](C)(C)C.O=S(=O)([N-]S(=O)(=O)C(F)(F)F)C(F)(F)F, the activity coefficient by setting is: (343.55 K) 3.18 ± 0.22; (354.05 K) 3.01 ± 0.2; (364.55 K) 2.81 ± 0.19; (374.95 K) 2.64 ± 0.18; (385.45 K) 2.43 ± 0.17.
Consider `CCCCCCCCC` [nonane] + CCCC[N+](C)(C)C.O=S(=O)([N-]S(=O)(=O)C(F)(F)F)C(F)(F)F, for which the activity coefficient runs as follows: (301.65 K) 67.5 ± 4.6; (312.15 K) 59.8 ± 4.1; (322.75 K) 52.6 ± 3.6; (333.25 K) 47.3 ± 3.2; (343.65 K) 43.2 ± 3; (354.05 K) 39 ± 2.7. Further, the activity coefficient was 36 ± 2.5 (364.55 K) and 32.3 ± 2.2 (374.95 K).
Take `Cc1ccccc1` [toluene] + CCCC[N+](C)(C)C.O=S(=O)([N-]S(=O)(=O)C(F)(F)F)C(F)(F)F: the activity coefficient (322.75 K) is 1.73 ± 0.12, the activity coefficient (333.25 K) is 1.71 ± 0.11, the activity coefficient (343.65 K) stood at 1.7 ± 0.11 and the activity coefficient (364.45 K) was 1.68 ± 0.11.
On to `C1CCCCC1` [cyclohexane] + CCCC[N+](C)(C)C.O=S(=O)([N-]S(=O)(=O)C(F)(F)F)C(F)(F)F, for which the activity coefficient by setting is: (300.95 K) 4.15 ± 0.28; (312.25 K) 3.84 ± 0.26; (322.85 K) 3.6 ± 0.25; (333.35 K) 3.37 ± 0.23.
With `CCCC=O` [butanal] + CCCC[N+](C)(C)C.O=S(=O)([N-]S(=O)(=O)C(F)(F)F)C(F)(F)F, the activity coefficient reads like this: (301.75 K) 0.84 ± 0.05; (312.25 K) 0.8 ± 0.05; (322.75 K) 0.79 ± 0.05; (343.55 K) 0.77 ± 0.05; (354.15 K) 0.76 ± 0.05.
Regarding `CC(C)=O` [acetone] + CCCC[N+](C)(C)C.O=S(=O)([N-]S(=O)(=O)C(F)(F)F)C(F)(F)F, the activity coefficient was 0.42 ± 0.04 (301.85 K), 0.42 ± 0.04 (312.45 K) and 0.4 ± 0.03 (343.75 K).
Take `CC#N` [acetonitrile] + CCCC[N+](C)(C)C.O=S(=O)([N-]S(=O)(=O)C(F)(F)F)C(F)(F)F: the activity coefficient (301.75 K) was determined as 0.52 ± 0.04; the activity coefficient (312.45 K) turned out to be 0.5 ± 0.04; the activity coefficient (322.95 K) turned out to be 0.49 ± 0.04; the activity coefficient (333.35 K) was 0.47 ± 0.04; the activity coefficient (343.75 K) was found to be 0.46 ± 0.04.
`CCO` [ethanol] + CCCC[N+](C)(C)C.O=S(=O)([N-]S(=O)(=O)C(F)(F)F)C(F)(F)F: the activity coefficient was found to be 1.94 ± 0.13 (312.25 K), 1.73 ± 0.12 (322.85 K), 1.57 ± 0.1 (333.25 K) and 1.41 ± 0.09 (343.65 K).
Take `CCCCCCCCCCCC` [dodecane] + CCCC[N+](C)(C)C.O=S(=O)([N-]S(=O)(=O)C(F)(F)F)C(F)(F)F: the activity coefficient is, setting by setting: (333.25 K) 128 ± 8.8; (343.65 K) 110 ± 7.5; (354.05 K) 92.3 ± 6.3.
For `CCCc1ccccc1` [propylbenzene] + CCCC[N+](C)(C)C.O=S(=O)([N-]S(=O)(=O)C(F)(F)F)C(F)(F)F, the activity coefficient amounted to 3.95 ± 0.27 (333.25 K), 3.86 ± 0.26 (343.65 K), 3.79 ± 0.26 (354.05 K) and 3.69 ± 0.25 (364.45 K).
Take `C1=CCCCC1` [cyclohexene] + CCCC[N+](C)(C)C.O=S(=O)([N-]S(=O)(=O)C(F)(F)F)C(F)(F)F: the activity coefficient is, setting by setting: (312.05 K) 6.87 ± 0.47; (322.55 K) 6.45 ± 0.44; (333.25 K) 5.94 ± 0.4; (343.65 K) 5.5 ± 0.37; (354.15 K) 5.31 ± 0.36.
For the compound `CO` [methanol] + CCCC[N+](C)(C)C.O=S(=O)([N-]S(=O)(=O)C(F)(F)F)C(F)(F)F, the activity coefficient (303.95 K) is 1.55 ± 0.1, the activity coefficient (312.05 K) is 1.42 ± 0.09, the activity coefficient (333.25 K) amounted to 1.15 ± 0.07 and the activity coefficient (343.65 K) came to 1.02 ± 0.06.
As for `C=CCCCCCCCC` [1-decene] + CCCC[N+](C)(C)C.O=S(=O)([N-]S(=O)(=O)C(F)(F)F)C(F)(F)F, the activity coefficient turned out to be 50.4 ± 3.5 (306.15 K); 47.8 ± 3.3 (311.95 K); 43.1 ± 3 (322.55 K); 39 ± 2.7 (333.25 K); 35.2 ± 2.4 (343.65 K); 32.1 ± 2.2 (354.05 K).
On to `CCCCCCO` [hexan-1-ol] + CCCC[N+](C)(C)C.O=S(=O)([N-]S(=O)(=O)C(F)(F)F)C(F)(F)F, for which the activity coefficient (343.65 K) is 4.02 ± 0.27, the activity coefficient (354.05 K) worked out at 3.58 ± 0.24, the activity coefficient (364.45 K) was 3.24 ± 0.22 and the activity coefficient (385.55 K) came out at 2.67 ± 0.18.
Regarding `C=CCCCCCC` [oct-1-ene] + CCCC[N+](C)(C)C.O=S(=O)([N-]S(=O)(=O)C(F)(F)F)C(F)(F)F, the activity coefficient amounted to 22.9 ± 1.6 (306.75 K); 22 ± 1.5 (312.98 K); 20.4 ± 1.4 (322.55 K); 19 ± 1.3 (333.25 K); 17.2 ± 1.2 (343.65 K); 16.2 ± 1.1 (354.05 K). Also, for the setting “364.55 K”, the activity coefficient came out at 15.1 ± 1.
As to `C=CCCCC` [hex-1-ene] + CCCC[N+](C)(C)C.O=S(=O)([N-]S(=O)(=O)C(F)(F)F)C(F)(F)F, the activity coefficient worked out at 10.2 ± 0.7 (305.85 K); 9.81 ± 0.67 (312.35 K); 9.46 ± 0.65 (322.55 K); 8.63 ± 0.59 (343.65 K); 7.93 ± 0.54 (364.55 K).
Consider `CC(C)O` [propan-2-ol] + CCCC[N+](C)(C)C.O=S(=O)([N-]S(=O)(=O)C(F)(F)F)C(F)(F)F, for which the activity coefficient (302.55 K) was found to be 2.4 ± 0.16; the activity coefficient (312.15 K) was found to be 2.14 ± 0.15; the activity coefficient (322.85 K) was determined as 1.89 ± 0.13; the activity coefficient (333.35 K) is 1.67 ± 0.11; the activity coefficient (343.65 K) is 1.53 ± 0.1; the activity coefficient (354.05 K) was 1.37 ± 0.09.
In the case of `CC(C)(C)O` [2-methylpropan-2-ol] + CCCC[N+](C)(C)C.O=S(=O)([N-]S(=O)(=O)C(F)(F)F)C(F)(F)F, the activity coefficient was 2.24 ± 0.15 (302.55 K); 2.01 ± 0.14 (312.15 K); 1.79 ± 0.12 (322.85 K); 1.61 ± 0.11 (333.25 K); 1.47 ± 0.1 (343.65 K); 1.34 ± 0.09 (354.05 K).
`CN1CCCC1=O` [N-methylpyrrolidone] + CCCC[N+](C)(C)C.O=S(=O)([N-]S(=O)(=O)C(F)(F)F)C(F)(F)F: the activity coefficient (312.35 K) came out at 112 ± 7.7; the activity coefficient (322.75 K) was found to be 81.3 ± 5.6; the activity coefficient (333.35 K) was 60.4 ± 4.1; the activity coefficient (343.75 K) turned out to be 46.1 ± 3.1; the activity coefficient (354.15 K) was 36.5 ± 2.5; the activity coefficient (364.75 K) turned out to be 28 ± 1.9. In addition, the activity coefficient (375.15 K) was determined as 22.4 ± 1.5.
Regarding `CCCCCc1ccccc1` [pentylbenzene] + CCCC[N+](C)(C)C.O=S(=O)([N-]S(=O)(=O)C(F)(F)F)C(F)(F)F, the activity coefficient is, setting by setting: (354.05 K) 7.92 ± 0.54; (364.45 K) 7.69 ± 0.52; (374.95 K) 7.36 ± 0.5; (385.45 K) 7.07 ± 0.48.
